# From patent US5308843A, “Method of inhibiting mammalian topoisomerase II and malignant cell growth in mammals, with substituted (S)-3-methyl-7-oxo-2,3-dihydro-7H-pyrido[1,2,3-de][1,4 ]-benzoxazine(and-benzothiazine)-6-carboxylic acids” (Sterling Drug Inc., priority 1990, dated 1994)
# pEC50: −log10 of the molar value.
# Assays:
# human topoisomerase II = target: T1, human topoisomerase II (Homo sapiens, UniProt P11388); test: Mammalian (human) topoisomerase II inhibition assay: topo II-DNA complex stabilisation; format: biochemical; settings: concentration with activity equal to the EC50 of reference mAMSA; 20 min at 37° C.
# T1 construct: Topo II was purified from late log phase suspension cultures of HeLa WIS; endogenous in cells; host or cells: HeLa WIS (late log phase suspension cultures); native enzyme purified in house
# T1 sequence (P11388 whole entry): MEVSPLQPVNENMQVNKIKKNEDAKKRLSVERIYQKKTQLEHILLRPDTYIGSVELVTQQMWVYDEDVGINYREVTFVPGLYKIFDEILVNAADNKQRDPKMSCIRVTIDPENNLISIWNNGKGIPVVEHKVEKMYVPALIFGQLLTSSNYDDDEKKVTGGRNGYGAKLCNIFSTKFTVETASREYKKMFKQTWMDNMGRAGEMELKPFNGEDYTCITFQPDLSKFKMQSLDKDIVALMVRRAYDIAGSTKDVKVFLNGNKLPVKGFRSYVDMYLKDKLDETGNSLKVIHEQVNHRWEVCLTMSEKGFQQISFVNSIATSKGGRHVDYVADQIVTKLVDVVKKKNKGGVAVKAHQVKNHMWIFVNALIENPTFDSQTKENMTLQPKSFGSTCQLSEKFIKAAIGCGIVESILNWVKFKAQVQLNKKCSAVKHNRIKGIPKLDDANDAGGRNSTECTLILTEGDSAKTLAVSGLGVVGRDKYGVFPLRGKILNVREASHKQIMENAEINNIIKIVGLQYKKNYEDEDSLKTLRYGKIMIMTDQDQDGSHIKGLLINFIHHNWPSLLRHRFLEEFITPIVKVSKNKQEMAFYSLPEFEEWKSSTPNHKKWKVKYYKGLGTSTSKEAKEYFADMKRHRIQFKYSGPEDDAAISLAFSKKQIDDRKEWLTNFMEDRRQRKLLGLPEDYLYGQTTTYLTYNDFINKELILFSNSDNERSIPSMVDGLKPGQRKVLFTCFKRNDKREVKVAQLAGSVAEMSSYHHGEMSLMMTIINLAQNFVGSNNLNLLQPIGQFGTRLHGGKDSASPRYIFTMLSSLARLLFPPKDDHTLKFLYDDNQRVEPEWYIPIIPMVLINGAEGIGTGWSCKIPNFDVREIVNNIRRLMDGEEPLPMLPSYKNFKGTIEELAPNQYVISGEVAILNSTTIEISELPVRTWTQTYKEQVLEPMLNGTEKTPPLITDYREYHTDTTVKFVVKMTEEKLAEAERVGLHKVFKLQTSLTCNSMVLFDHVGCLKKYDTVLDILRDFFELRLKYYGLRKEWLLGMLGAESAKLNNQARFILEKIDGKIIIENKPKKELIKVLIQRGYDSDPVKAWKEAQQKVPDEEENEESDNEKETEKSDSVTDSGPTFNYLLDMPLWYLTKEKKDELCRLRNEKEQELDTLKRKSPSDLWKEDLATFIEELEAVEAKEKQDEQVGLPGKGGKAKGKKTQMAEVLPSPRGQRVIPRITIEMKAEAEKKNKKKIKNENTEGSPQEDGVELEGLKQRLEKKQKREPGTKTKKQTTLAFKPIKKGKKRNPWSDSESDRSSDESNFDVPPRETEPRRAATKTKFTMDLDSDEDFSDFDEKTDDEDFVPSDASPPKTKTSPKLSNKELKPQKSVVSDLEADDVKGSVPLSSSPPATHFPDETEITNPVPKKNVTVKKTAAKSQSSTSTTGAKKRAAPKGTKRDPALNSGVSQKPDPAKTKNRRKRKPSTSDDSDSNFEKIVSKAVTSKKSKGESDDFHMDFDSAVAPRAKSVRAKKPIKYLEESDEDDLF
# Excerpt: Mammalian Topoisomerase II Inhibition Assay Procedure
# The inhibition of human topoisomerase II (hereafter topo II) was quantitated by a procedure adapted from that described by Trask et al., EMBO J., 3, 671-676 (1984). The assay quantitates the amount of topo II covalently complexed by DNA at equilibrium during a topo II reaction. This assay determines the potential of a compound to stabilize this complex, which potential is closely related to the cytotoxicity of the compound.
# Topo II was purified from late log phase suspension cultures of HeLa WIS by an adaption of the method described by Per et al., Mol. Pharmacol., 32, 17-25 (1987).
# Assays (in duplicate) were assembled at 4° C. Assay mix (25 μl) was distributed in Beckman (No. 265270) 1.5 ml microtitre tubes followed by the addition of 5 μl test compound to yield the final concentrations of assay components:
# 4 ng 3' end labeled (32p) pBR322 DNA (10^7 DPM/μg)
# The assay mix including the test compound was incubated for 20 minutes at 37° C. The reaction was terminated at 37° C. by the addition of 3 μl 10% SDS followed by the addition of 266 μl 10 mM Tris-Cl pH 7.5, 20 μg/ml BSA, 20 μg/ml calf thymus DNA, 1% SDS.
# A SDS/protein precipitate was formed by the addition of 28 μl 2.5M KCl followed by chilling on ice for a minimum of 10 minutes. The precipitate was collected and washed with a Brandell cell harvester on a GFB glass fiber filter membrane as follows. The contents of the assay tube were drawn up into the harvester. The tube was then rinsed 7× with 10 mM Tris-Cl pH 7.5, 1 mM EDTA and 100 mM KCl. The precipitate was washed with 1 L of a solution of 10 mM Tris-Cl pH 7.5, 1 mM EDTA, 100 mM KCl followed by 1 L of 95% ethyl alcohol and finally 0.5 L 70% of ethyl alcohol (per 48 samples in each case). After drying, CPM was determined by liquid scintillation counting with 5 ml Biofluor (NEN Research Products) or Readisafe (Beckman Instruments Inc.) cocktail.
# Preparation of test compound--A stock solution (6 mg/ml) of test compound was prepared either in 0.1N sodium hydroxide or 0.2N hydrogen chloride. This solution then was diluted 1/5 into water and serially thereafter in either 0.02N sodium hydroxide or 0.04N hydrogen chloride, respectively. The stock solution and serial dilution of the test compound was stored at -20° C. prior to testing.
# Screening of test compound--As an initial screen, the test compound was tested at a final concentration of 2, 20 and 200 μg/ml.
# Controls--A solvent control which indicates the base level of topo II-DNA complex formed in the absence of the test compound was included in each test. A control, in which topo II was omitted, was included for each test compound at the highest drug concentration tested.
# Reference agent--A dose response curve with mAMSA at 0.01, 0.08, 0.16, 0.32, 1.0 and 10 μg/ml was included in each test.
# Data reduction--The EC50 (effective concentration at which 50% of the maximal DNA-topo II complex is formed) of a test compound is defined to be the concentration with activity equal to the EC50 of the reference agent, mAMSA. The maximal DNA-topo II complex formed is taken as that equal to that formed at the nearly saturating dose of mAMSA (10 μg/ml).
# [1] = system: purified eukaryotic topoisomerase II; settings: Barrett et al. 1987; cited from earlier work
# [2] = system: procaryotic and eucaryotic topoisomerase enzymes; settings: Jefson et al. 1989; cited from earlier work
# [3] = system: DNA topoisomerase II from calf thymus; settings: Hussy et al. 1986; cited from earlier work
# [4] = system: topoisomerase II of fetal calf thymus; settings: among compared quinolones, Hoshino et al. 1989; cited from earlier work
smiles,measurement,setting,value
"C[C@H]1COc2c(-c3ccncc3)c(F)cc3c(=O)c(C(=O)O)cn1c23 [1(b), (S)-10-(4-Pyridinyl)-9-fluoro-2,3-dihydro-3-methyl-7-oxo-7H-pyrido[1,2,3-de][1,4]benzoxazine-6-carboxylic acid]",pEC50,human topoisomerase II,4.24
"CCc1cc(-c2c(F)cc3c(=O)c(C(=O)O)cn4c3c2OC[C@@H]4C)ccn1 [3(c), (S)-10-(2-Ethyl-4-pyridinyl)-9-fluoro-2,3-dihydro-3-methyl-7-oxo-7H-pyrido[1,2,3-de][1,4]benzoxazine-6-carboxylic acid]",pEC50,human topoisomerase II,4.04
"CCn1cc(C(=O)O)c(=O)c2cc(F)c(-c3ccncc3)c(F)c21 [CP-67,015, 6,8-difluoro-1-ethyl-7-(4-pyridyl)-1,4-dihydro-4-oxo-3-quinolinecarboxylic acid]",enhancement/induction of DNA cleavage mediated by topoisomerase II (in words),[1],induced significant DNA cleavage in both the radiolabeled and cold cleavage assays
"CCc1cc(-c2c(F)cc3c(=O)c(C(=O)O)cn4c3c2OC[C@@H]4C)cc(C)n1 [Example 2(d), (S)-10-(2-Ethyl-6-methyl-4-pyridinyl)-9-fluoro-2,3-dihydro-3-methyl-7-oxo-7H-pyrido[1,2,3-de][1,4]benzoxazine-6-carboxylic acid]",pEC50,human topoisomerase II,4.17
"Cc1cc(-c2c(F)cc3c(=O)c(C(=O)O)cn4c3c2[S@@+]([O-])CC4C)cc(C)n1 (stereo partly drawn) [Example 4, (S)-10-(2,6-Dimethyl-4-pyridinyl)-9-fluoro-3-methyl-7-oxo-2,3-dihydro-7H-pyrido[1,2,3-de][1,4]benzothiazine-6-carboxylic acid 1-oxide]",pEC50,human topoisomerase II,4.21
"Cc1cc(-c2c(F)c(F)c3c(=O)c(C(=O)O)cn4c3c2OC[C@@H]4C)cc(C)n1 [Example 6, (S)-10-(2,6-Dimethyl-4-pyridinyl)-8,9-difluoro-3-methyl-7-oxo-2,3-dihydro-7H-pyrido[1,2,3-de][1,4]benzoxazine-6-carboxylic acid]",pEC50,human topoisomerase II,4.30
"Cc1cc(-c2c(F)cc3c(=O)c(C(=O)O)cn4c3c2OC[C@@H]4C)cc(C)n1 [Example 7, (S)-10-(2,6-Dimethyl-4-pyridinyl)-9-fluoro-3-methyl-7-oxo-2,3-dihydro-7H-pyrido[1,2,3-de][1,4]benzoxazine-6-carboxylic acid]",pEC50,human topoisomerase II,4.51
"C[C@H]1COc2c(-c3ccncc3)c(F)cc3c(=O)c(C(=O)O)cn1c23 [S-(-)-CP-92,121, (S)-9-fluoro-3-methyl-10-(4-pyridyl)-7-oxo-7H-pyrido[1,2,3-de][1,4]benzoxazine-6-carboxylic acid]",combined activity against procaryotic and eucaryotic topoisomerase enzymes (in words),[2],combined potent activity
"C[C@H]1COc2c(-c3ccc4ncccc4c3)c(F)cc3c(=O)c(C(=O)O)cn1c23 [S-(-)-CP-100,964, (S)-9-fluoro-3-methyl-10-(6-quinolyl)-7-oxo-7H-pyrido[1,2,3-de][1,4]benzoxazine-6-carboxylic acid]",combined activity against procaryotic and eucaryotic topoisomerase enzymes (in words),[2],combined potent activity
"O=C(O)c1cn(C2CC2)c2cc(N3CCNCC3)c(F)cc2c1=O [ciprofloxacin, 1-cycloproyl-6-fluoro-7-(1-piperazinyl)-1,4-dihydro-4-oxo-3-quinolinecarboxylic acid]",Ki values of 50% inhibition,[3],150 µg/mL
"CCn1cc(C(=O)O)c(=O)c2cc(F)c(N3CCNCC3)cc21 [norfloxacin, 1-ethyl-6-fluoro-7-(1-piperazinyl)-1,4-dihydro-4-oxo-3-quinolinecarboxylic acid]",Ki values of 50% inhibition,[3],300 µg/mL
same,enhancement/induction of DNA cleavage mediated by topoisomerase II (in words),[1],not to be potent enhancers of DNA cleavage mediated by topoisomerase II
"CC1COc2c(N3CCN(C)CC3)c(F)cc3c(=O)c(C(=O)O)cn1c23 (centres unmarked) [ofloxacin, 9-fluoro-3-methyl-10-(4-methyl-1-piperazinyl)-7-oxo-2,3-dihydro-7H-pyrido[1,2,3-de][1,4]benzoxazine-6-carboxylic acid]",potency of inhibition of topoisomerase II (in words),[4],lowest
same,Ki values of 50% inhibition,[3],1300 µg/mL
